Measured values published in patent US20220195275A1, “Biocompatible Oil Herders and Methods of Use” (Texas A&M University, priority 2019, published 2022).
Values belong to the molecule of their own block, whether it stands above or below them.

What was measured:
[1] = Herding efficiency of PEG derivatives and commercial surfactants (slick thickness ratio vs herder concentration); conditions: 25° C.
Experimental: Herding surfactant is essentially a surface-active agent. To preliminarily investigate the material herding efficiency to oil, suitable polymer surfactants with […] were tested. Polyethylene glycol (PEG) is a water soluble polymer and easy to couple with hydrophobic chain to form surfactant. The experiments were performed at room temperature. The slick thickness ratio is defined as below: […]
Higher slick thickness ratio implied better herding quality. […] The effectiveness of surfactants at herding oil is directly related to the chemical structure of the PEG derivatives. […] The reason of slick thickness ratio curve of FIG. 8C and FIG. 8D remained flat were assumed to be its internal chemical structure large benzene rings and two side longer carbon chains. The benzene rings and longer carbon chains affected the steric hindrance of materials and largely restricted the hydrophobic side reaction with oil slick. They could not perform herding effect and thus curves in FIG. 8C and FIG. 8D remained flat, and the thickness ratio was close to 1.
More comparisons were tested to study herder efficiency with different commercial surfactants at varying temperatures and salinity. […] In FIG. 9B, the PEG-monolaurate retained high herding ability under 25° C. […]

[2] = tested on: black beans, red beans, and pinto beans; conditions: in vivo
From the text: Edible black beans, red beans, and pinto beans were purchased from local supermarket. 12 black beans, 12 red beans, and 9 pinto beans were randomly chosen and set aside in lab atmosphere for 7 days. […] Beans were separated into three plastic petri dishes, into which four black beans, four red beans and three pinto beans each were placed. Three water environments were simulated, and beans were immersed with reference sea water, 0.25 wt % pristine KGM in sea water, and 0.25 wt % modified konjac glucomannan in sea water for 7 days.

[3] = Conductivity versus temperature / determination of Krafft point; assay type: physicochemical; conditions: for Conductivity: SDS (0.1 mol/L) in water
Experimental: The hand-held conductivity/TDS meter CN 6/TDS 6 of Oakton instruments was used to measure the conductivity and the temperature of the sample.
Sodium dodecyl sulfate (Ionic surfactant): sodium dodecyl sulfate in deionized water solution (0.1 mol/l) was prepared in a 200 ml glass beaker. The solution was stored in refrigerator at 5° C. for 24 hours. The sodium dodecyl sulfate surfactant has crystallized below the 5° C. atmosphere. The glass beaker was taken out of the refrigerator and placed on a hot plate stirrer. The conductivity meter probe was immersed into the solution. The dual measuring mode of conductivity meter could measure both the conductivity and the temperature. The solution was slightly heated to remain 0.2° C./min increase. The measured conductivity and temperature data were drawn in FIGS. 2A-2B. […]
Krafft temperature and solubility behavior of the ionic surfactant SDS and the non-ionic surfactant modified konjac glucomannan were discussed in FIGS. 2A-2D. […] The conductivity measurement was proven to be able to identify the Krafft temperature. Krafft temperature is the minimum temperature for surfactant to form micelles. There is an abrupt large solubility increase above the Krafft temperature. Surfactant working temperature should be higher than Krafft temperature for surfactant functioning.
First, 200 ml of SDS in deionized water solution of 0.1 mol/L concentration was prepared in a 200 ml glass beaker. The solution was left in refrigerator at 5° C. for 24 hours. This process has brought about the crystallization of the surfactant. The glass beaker is taken out of the refrigerator and placed on a hot plate stirrer (CORNING PC-420). The probe stick of the conductivity meter (TDS meter CON 6/TDS 6) is inserted into the solution. The dual measuring mode of conductivity meter can measure both the conductivity and the temperature. The conductivity of the solution is recorded from 12° C. and measured till 28° C. The solution is slightly heated to attain a steady temperature rise. The conductivity is measured at regular intervals of temperature (0.2° C. raise) and noted down. The whole process took about 2.5 hours. […]

Molecule: Span-20
herding ability [1]: good herding ability

growth (sprouting) of beans [2]: did not affect the growth of the beans
Molecule: konjac glucomannan

Krafft temperature (sudden large increase in conductivity) ([3]; 0.1 mol/L in deionized water): 14.6 °C
Conductivity ([3]; 13 ° C.): 3.07 mS
Conductivity ([3]; 13.2 ° C.): 3.07 mS
Conductivity ([3]; 13.4 ° C.): 3.09 mS
Conductivity ([3]; 13.6 ° C.): 3.1 mS
Conductivity ([3]; 13.8 ° C.): 3.11 mS
Conductivity ([3]; 14 ° C.): 3.11 mS
Conductivity ([3]; 14.2 ° C.): 3.12 mS
Conductivity ([3]; 14.4 ° C.): 3.14 mS
Conductivity ([3]; 14.6 ° C.): 3.25 mS
Conductivity ([3]; 14.8 ° C.): 3.34 mS
Conductivity ([3]; 15 ° C.): 3.56 mS
Conductivity ([3]; 15.2 ° C.): 3.82 mS
Conductivity ([3]; 15.4 ° C.): 4.02 mS
Conductivity ([3]; 15.6 ° C.): 4.21 mS
Conductivity ([3]; 15.8 ° C.): 4.3 mS
Conductivity ([3]; 16 ° C.): 4.35 mS
Conductivity ([3]; 16.2 ° C.): 4.37 mS
Conductivity ([3]; 16.4 ° C.): 4.38 mS
Conductivity ([3]; 16.6 ° C.): 4.34 mS
Conductivity ([3]; 16.8 ° C.): 4.39 mS
Conductivity ([3]; 17 ° C.): 4.39 mS
Conductivity ([3]; 17.2 ° C.): 4.41 mS
Conductivity ([3]; 17.4 ° C.): 4.43 mS
Conductivity ([3]; 17.6 ° C.): 4.44 mS
Conductivity ([3]; 17.8 ° C.): 4.45 mS
Conductivity ([3]; 18 ° C.): 4.49 mS
Conductivity ([3]; 18.6 ° C.): 4.5 mS
Conductivity ([3]; 19 ° C.): 4.51 mS
Conductivity ([3]; 19.4 ° C.): 4.53 mS
Conductivity ([3]; 20 ° C.): 4.57 mS
Conductivity ([3]; 21 ° C.): 4.6 mS
Conductivity ([3]; 22 ° C.): 4.65 mS
Conductivity ([3]; 23 ° C.): 4.67 mS
Conductivity ([3]; 24 ° C.): 4.7 mS
Conductivity ([3]; 25 ° C.): 4.72 mS
Conductivity ([3]; 26 ° C.): 4.75 mS
Conductivity ([3]; 27 ° C.): 4.77 mS
Conductivity ([3]; 28 ° C.): 4.82 mS
Molecule: CCCCCCCCCCCCOS(=O)(=O)[O-].[Na+] [SDS, sodium dodecyl sulfate]
